Experimental data published in publication PMC11818921, “Biological Activities of Constituents from Rosa roxburghii and Their Mechanisms Based on Network Pharmacology and Biological Verification” (International Journal of Molecular Sciences, 2025).
Entries after “also recorded” stand apart in the source; their conditions may differ. Values belong to the molecule of their own block, whether it stands above or below them.

Key:
[1] = ABTS free radical-scavenging assay; details: 6 min reaction, 734 nm
Experimental: In order to explore the antioxidant capacity of compounds 1–7, DPPH and ABTS free radical-scavenging methods were used in this experiment (ascorbic acid as a positive control). During the experimental operation, the antioxidant test method proposed by Zhu et al. was used as a reference. Different concentrations of each compound solution were added to 96-well plates, and then 100 μL of DPPH/ABTS solution was added to each well, and the reaction was performed at room temperature for 30 min (DPPH)/6 min (ABTS). After the reaction, the OD values of each well were measured at 517 nm (DPPH)/734 nm (ABTS) using a microplate reader. Finally, according to the measured OD value, the DPPH and ABTS free radical-scavenging rates of each sample were calculated. In order to ensure the accuracy and reliability of the experimental data, all samples were tested three times.Clearance = [1 − (A sample group − A control group)/A blank group] × 100%

[2] = RAW264.7 cell viability experiment (MTT); details: mouse, RAW264.7 cells
Experimental: (§2) RAW264.7 cells were cultured in DMEM containing 1% penicillin/streptomycin and 10% bovine fetal serum in an incubator (5% CO2, 37 °C).
(§3) RAW264.7 cells in the logarithmic growth phase were taken and adjusted to 1.5 × 10^5 cells/mL. The cells were inoculated in 96-well plates and divided into a control group, a blank group, and an experimental group with different concentrations. Each group had 4 duplicate wells and was incubated for 24 h (37 °C). Different concentrations of compounds (100 μL) were added to 96-well plates, and 100 μL of culture medium was added to the blank group and the control group, respectively, and incubated for 24 h. MTT (5 mg/mL, 10 μL) was incubated for 4 h (37 °C) per well. The OD value was measured at 450 nm using a microplate reader to calculate the cell viability.

[3] = tested on: NO release in LPS-induced RAW264.7 macrophages; assay: Inhibition of NO production induced by LPS in RAW264.7 cells; assay type: cell-based; details: LPS-induced RAW264.7 cells; for IC50: RAW264.7, 24 h, LPS 2 μg/mL, 24 h
Experimental: (§1) RAW264.7 cells were added to a 96-well plate (100 μL/well) at 1.5 × 10^5 cells/mL and incubated for 24 h (37 °C). The control group, model group, and experimental group were set up, with 4 replicates in each group. After incubation, the supernatant was discarded. The cells in the experimental group were treated with different concentrations of compounds, and each group was incubated with lipopolysaccharides (2 μg/mL) for 24 h (37 °C). According to the steps and requirements of the kit instructions, NO, TNF-α, and IL-6 content was detected.

[4] = biological target: α-glucosidase (Saccharomyces cerevisiae, UniProt P53341); assay: α-Glucosidase inhibition assay (pNPG); assay type: biochemical; details: at a concentration of 200 μM; for inhibition at 200 µM: read-out: α-glucosidase inhibition rate
Experimental: For this assay, 20 μL of each sample, 20 μL of α-glucosidase solution (0.6 U/mL), and PBS solution (20 μL) were mixed, added to a 96-well plate, and incubated at 37 °C for 10 min, and then, pNPG solution (20 μL) was added and incubation continued for 30 min. At the end of incubation, the reaction was terminated with the addition of 80 μL of NaCO3 (0.2 M). The release of p-nitrophenol was measured by placing the 96-well plate at 405 nm on an enzyme meter (positive control: acarbose). The test was repeated three times for all samples.Inhibition (%) = (1 − A405 sample/A405 control) × 100%.

[5] = tested on: TNF-α; assay: ELISA of TNF-α expression in LPS-stimulated RAW264.7 cells; assay type: cell-based; details: 50 μM
Experimental: as §1

[6] = tested on: IL-6; assay: ELISA of IL-6 expression in LPS-stimulated RAW264.7 cells; assay type: cell-based; details: lowest concentration 12.5 μM
Experimental: as §1

[7] = tested on: RAW264.7 cells; details: 50 µM
Experimental: as §2, §3

[8] = Mus musculus, 50 µM, read-out: NO inhibition rate (%)

α-glucosidase, sequence (P53341 whole entry): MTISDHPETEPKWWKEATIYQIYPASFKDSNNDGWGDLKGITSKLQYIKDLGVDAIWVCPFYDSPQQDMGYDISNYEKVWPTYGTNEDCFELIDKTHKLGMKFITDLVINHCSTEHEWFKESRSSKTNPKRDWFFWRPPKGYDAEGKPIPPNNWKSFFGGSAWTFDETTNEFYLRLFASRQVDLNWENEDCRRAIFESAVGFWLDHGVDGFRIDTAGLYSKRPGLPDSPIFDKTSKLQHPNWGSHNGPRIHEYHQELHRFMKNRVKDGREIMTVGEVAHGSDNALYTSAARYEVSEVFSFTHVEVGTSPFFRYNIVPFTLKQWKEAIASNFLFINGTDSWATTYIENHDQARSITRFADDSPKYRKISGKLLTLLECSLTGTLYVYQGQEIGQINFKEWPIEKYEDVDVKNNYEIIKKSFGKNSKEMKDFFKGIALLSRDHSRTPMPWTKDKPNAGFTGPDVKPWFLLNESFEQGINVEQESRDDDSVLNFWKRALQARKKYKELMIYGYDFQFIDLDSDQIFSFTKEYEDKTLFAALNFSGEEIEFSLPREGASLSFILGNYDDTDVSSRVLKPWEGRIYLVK

Molecule: O=C1C[C@H](c2ccc(O)c(O)c2)Oc2cc(O)cc(O)c21 [Compound 2, (-)-eriodictyol]
IC50 [1]: 142.6 ± 0.8 µM | viability at 24 h, 50 µM [2]: 100% | inhibition at 50 µM [3, 8]: 31.3% | inhibition at 200 µM [4]: 50.1%

Molecule: (1R)-4-[(3R)-3-hydroxybutyl]-3,5,5-trimethylcyclohex-3-en-1-ol [Compound 6]
IC50 [1]: 128.3 ± 1.2 µM | Cell viability (%) [7]: 98.1% | NO inhibition rate (%) ([3]; 50 µM): 0.8%

Molecule: S=C(S)N1CCCC1 [PDTC, Pyrrolidine dithiocarbamate, reference compound]
viability at 24 h, 5 µM [2]: 98.5% | IC50 ([3]; Mus musculus): 3.13 ± 0.3 µM | inhibition at 5 µM ([3]; Mus musculus, 5 µM, positive control, read-out: NO inhibition rate (%)): 69.1%

Molecule: 4-(1-Methoxyethenyl)phenol [Compound 7]
α-glucosidase inhibition rate [4]: 41.1%

Second part, led by results:

IC50 ([3]; Mus musculus): 7.83 ± 2 µM
Molecule: O=C1c2c(O)cc(O)cc2O[C@H](c2ccc(O)cc2)[C@H]1O [Compound 3, aromadendrin]
effect on TNF-α expression (ELISA) [5]: significant inhibitory activity | effect on IL-6 expression (ELISA) [6]: strong inhibitory effect; also recorded: dose-dependently suppressed | viability at 24 h, 50 µM [2]: 100% | inhibition at 50 µM [3, 8]: 92.5%

IC50 [1]: 107 ± 1.1 µM
Molecule: COC(=O)C1OC(OCC(O)COC(=O)c2cc(OC)c(O)c(OC)c2)C(O)C(O)C1O (stereo not shown) [Compound 1, Roxbubenzoate A]
viability at 24 h, 50 µM [2]: 100% | inhibition at 50 µM [3, 8]: 0%

inhibition at 200 µM [4]: 46.7%
Molecule: CC1=C(CC[C@H](C)O[C@H]2O[C@@H](CO)[C@H](O)[C@@H](O)[C@@H]2O)C(C)(C)C=CC1=O [Compound 4, linarionoside A]
viability at 24 h, 50 µM [2]: 98.8% | inhibition at 50 µM [3, 8]: 6.6%
